Reference: ChEMBL document CHEMBL3885861, “Open TG-GATES”

Species on record: Rattus norvegicus
Assay: Open TG-GATES - Regimen: Single
Format: toxicity, organism-based, Sprague-Dawley
Parameters: regimen Single, gender Male, age 6 weeks
Conditions: in vivo, po, 300 mg/kg, route gavage, dose level Middle; for APTT / Bas / Eos / Fbg / Hb / Ht / Lym / MCH / MCHC / MCV / Mono / Neu / PT / Plat / RBC / Ret / WBC: tissue Blood; for KIDNEY_L / KIDNEY_R / KIDNEY_TOTAL: tissue Kidney; for LIVER: tissue Liver; for A/G / ALP / ALT / AST / BUN / CRE / Ca / Cl / DBIL / GLC / IP / K / LDH / Na / PL / RALB / TBIL / TC / TG / TP / gamma-GTP: tissue Plasma

Question: For `CC(=O)Nc1ccc2c(c1)Cc1ccccc1-2` [2-ACETYLAMINOFLUORENE], which TERMINAL_BW (3 h) is on record?
Answer: 222.8 g

Question: And the APTT (3 h)?
Answer: 19.8 s

Question: What about the Bas (3 h) of the same molecule?
Answer: 0.4%

Question: What about the Eos (3 h) of the same molecule?
Answer: 1.2%

Question: And the Fbg (3 h)?
Answer: 222.4 mg/dL

Question: And the Hb (3 h)?
Answer: 13.9 g/dL

Question: What about the Ht (3 h) of the same molecule?
Answer: 39.7%

Question: And the Lym (3 h)?
Answer: 69.8%

Question: And the MCH (3 h)?
Answer: 22.1 pg

Question: What about the MCHC (3 h) of the same molecule?
Answer: 34.9%

Question: And the MCV (3 h)?
Answer: 63.3 fL

Question: And the Mono (3 h)?
Answer: 2.8%

Question: What about the Neu (3 h) of the same molecule?
Answer: 25.4%

Question: And the PT (3 h)?
Answer: 12 s

Question: What about the Plat (3 h) of the same molecule?
Answer: 131.6 x10_4/uL

Question: What about the RBC (3 h) of the same molecule?
Answer: 626.2 x10_4/ul

Question: What about the Ret (3 h) of the same molecule?
Answer: 7.1%

Question: And the WBC (3 h)?
Answer: 74.2 x10_2/uL

Question: And the KIDNEY_L (3 h)?
Answer: 1 g

Question: What about the KIDNEY_R (3 h) of the same molecule?
Answer: 0.9 g

Question: And the KIDNEY_TOTAL (3 h)?
Answer: 1.9 g

Question: What about the LIVER (3 h) of the same molecule?
Answer: 10.3 g

Question: What about the A/G (3 h) of the same molecule?
Answer: 1.7

Question: What about the ALP (3 h) of the same molecule?
Answer: 922.4 IU/L

Question: And the ALT (3 h)?
Answer: 39 IU/L

Question: What about the AST (3 h) of the same molecule?
Answer: 78 IU/L

Question: And the BUN (3 h)?
Answer: 12.8 mg/dL

Question: What about the CRE (3 h) of the same molecule?
Answer: 0.4 mg/dL

Question: What about the Ca (3 h) of the same molecule?
Answer: 10.8 mg/dL

Question: And the Cl (3 h)?
Answer: 103.8 meq/L

Question: And the DBIL (3 h)?
Answer: 0.07 mg/dL

Question: And the GLC (3 h)?
Answer: 201.6 mg/dL

Question: And the IP (3 h)?
Answer: 10.2 mg/dL

Question: And the K (3 h)?
Answer: 3.9 meq/L

Question: What about the LDH (3 h) of the same molecule?
Answer: 195.8 IU/L

Question: And the Na (3 h)?
Answer: 141.6 meq/L

Question: And the PL (3 h)?
Answer: 133.2 mg/dL

Question: What about the RALB (3 h) of the same molecule?
Answer: 3.6 g/dL

Question: And the TBIL (3 h)?
Answer: 0.1 mg/dL

Question: What about the TC (3 h) of the same molecule?
Answer: 74.6 mg/dL

Question: What about the TG (3 h) of the same molecule?
Answer: 62.6 mg/dL

Question: And the TP (3 h)?
Answer: 5.7 g/dL

Question: And the gamma-GTP (3 h)?
Answer: 1.4 IU/L

Question: What about the TERMINAL_BW (6 h) of the same molecule?
Answer: 219.1 g

Question: What about the APTT (6 h) of the same molecule?
Answer: 20 s

Question: What about the Bas (6 h) of the same molecule?
Answer: 0.6%

Question: What about the Eos (6 h) of the same molecule?
Answer: 0.8%

Question: What about the Fbg (6 h) of the same molecule?
Answer: 224.8 mg/dL

Question: And the Hb (6 h)?
Answer: 14.4 g/dL

Question: And the Ht (6 h)?
Answer: 41.9%

Question: And the Lym (6 h)?
Answer: 77.2%

Question: And the MCH (6 h)?
Answer: 21.9 pg

Question: And the MCHC (6 h)?
Answer: 34.4%

Question: What about the MCV (6 h) of the same molecule?
Answer: 63.5 fL

Question: What about the Mono (6 h) of the same molecule?
Answer: 2.2%

Question: What about the Neu (6 h) of the same molecule?
Answer: 18.8%

Question: And the PT (6 h)?
Answer: 12.8 s

Question: And the Plat (6 h)?
Answer: 128 x10_4/uL

Question: And the RBC (6 h)?
Answer: 661.8 x10_4/ul

Question: What about the Ret (6 h) of the same molecule?
Answer: 7.2%

Question: And the WBC (6 h)?
Answer: 67.5 x10_2/uL

Question: And the KIDNEY_L (6 h)?
Answer: 1 g

Question: What about the KIDNEY_R (6 h) of the same molecule?
Answer: 1 g

Question: And the KIDNEY_TOTAL (6 h)?
Answer: 2 g

Question: And the LIVER (6 h)?
Answer: 10 g

Question: What about the A/G (6 h) of the same molecule?
Answer: 1.6

Question: And the ALP (6 h)?
Answer: 837.8 IU/L

Question: And the ALT (6 h)?
Answer: 31.6 IU/L

Question: What about the AST (6 h) of the same molecule?
Answer: 67.6 IU/L

Question: And the BUN (6 h)?
Answer: 12.2 mg/dL

Question: What about the CRE (6 h) of the same molecule?
Answer: 0.5 mg/dL

Question: What about the Ca (6 h) of the same molecule?
Answer: 10.8 mg/dL

Question: What about the Cl (6 h) of the same molecule?
Answer: 102.6 meq/L

Question: What about the DBIL (6 h) of the same molecule?
Answer: 0.068 mg/dL

Question: And the GLC (6 h)?
Answer: 218.2 mg/dL

Question: What about the IP (6 h) of the same molecule?
Answer: 9.1 mg/dL

Question: What about the K (6 h) of the same molecule?
Answer: 3.8 meq/L

Question: What about the LDH (6 h) of the same molecule?
Answer: 191.4 IU/L

Question: What about the Na (6 h) of the same molecule?
Answer: 141 meq/L

Question: What about the PL (6 h) of the same molecule?
Answer: 144.4 mg/dL

Question: What about the RALB (6 h) of the same molecule?
Answer: 3.5 g/dL

Question: And the TBIL (6 h)?
Answer: 0.1 mg/dL

Question: What about the TC (6 h) of the same molecule?
Answer: 85.2 mg/dL

Question: What about the TG (6 h) of the same molecule?
Answer: 32.6 mg/dL

Question: And the TP (6 h)?
Answer: 5.6 g/dL

Question: What about the gamma-GTP (6 h) of the same molecule?
Answer: 1.2 IU/L

Question: What about the TERMINAL_BW (9 h) of the same molecule?
Answer: 215.7 g

Question: What about the APTT (9 h) of the same molecule?
Answer: 18.1 s

Question: What about the Bas (9 h) of the same molecule?
Answer: 0.2%

Question: And the Eos (9 h)?
Answer: 0.6%

Question: And the Fbg (9 h)?
Answer: 233.8 mg/dL

Question: And the Hb (9 h)?
Answer: 13.9 g/dL

Question: What about the Ht (9 h) of the same molecule?
Answer: 40.7%

Question: What about the Lym (9 h) of the same molecule?
Answer: 74%

Question: What about the MCH (9 h) of the same molecule?
Answer: 21.4 pg

Question: And the MCHC (9 h)?
Answer: 34.2%

Question: What about the MCV (9 h) of the same molecule?
Answer: 62.5 fL

Question: And the Mono (9 h)?
Answer: 2.8%

Question: What about the Neu (9 h) of the same molecule?
Answer: 21.8%

Question: What about the PT (9 h) of the same molecule?
Answer: 13 s

Question: What about the Plat (9 h) of the same molecule?
Answer: 136.5 x10_4/uL

Question: What about the RBC (9 h) of the same molecule?
Answer: 652 x10_4/ul

Question: And the Ret (9 h)?
Answer: 7.4%

Question: What about the WBC (9 h) of the same molecule?
Answer: 80.9 x10_2/uL

Question: What about the KIDNEY_L (9 h) of the same molecule?
Answer: 1 g

Question: And the KIDNEY_R (9 h)?
Answer: 1 g

Question: What about the KIDNEY_TOTAL (9 h) of the same molecule?
Answer: 1.9 g

Question: And the LIVER (9 h)?
Answer: 9.7 g

Question: What about the A/G (9 h) of the same molecule?
Answer: 1.6

Question: And the ALP (9 h)?
Answer: 756.6 IU/L

Question: What about the ALT (9 h) of the same molecule?
Answer: 31.4 IU/L

Question: What about the AST (9 h) of the same molecule?
Answer: 68 IU/L

Question: What about the BUN (9 h) of the same molecule?
Answer: 10.4 mg/dL

Question: What about the CRE (9 h) of the same molecule?
Answer: 0.4 mg/dL

Question: What about the Ca (9 h) of the same molecule?
Answer: 10.5 mg/dL

Question: And the Cl (9 h)?
Answer: 103.4 meq/L

Question: What about the DBIL (9 h) of the same molecule?
Answer: 0.06 mg/dL

Question: What about the GLC (9 h) of the same molecule?
Answer: 206.4 mg/dL

Question: What about the IP (9 h) of the same molecule?
Answer: 8.9 mg/dL

Question: What about the K (9 h) of the same molecule?
Answer: 4 meq/L

Question: And the LDH (9 h)?
Answer: 184.6 IU/L

Question: And the Na (9 h)?
Answer: 140.2 meq/L

Question: What about the PL (9 h) of the same molecule?
Answer: 125 mg/dL

Question: What about the RALB (9 h) of the same molecule?
Answer: 3.5 g/dL

Question: And the TBIL (9 h)?
Answer: 0.1 mg/dL

Question: And the TC (9 h)?
Answer: 72.2 mg/dL

Question: And the TG (9 h)?
Answer: 32.2 mg/dL

Question: What about the TP (9 h) of the same molecule?
Answer: 5.7 g/dL

Question: What about the gamma-GTP (9 h) of the same molecule?
Answer: 1.2 IU/L

Question: What about the TERMINAL_BW (24 h) of the same molecule?
Answer: 220.9 g

Question: And the APTT (24 h)?
Answer: 19.1 s

Question: What about the Bas (24 h) of the same molecule?
Answer: 0.6%

Question: What about the Eos (24 h) of the same molecule?
Answer: 1%

Question: What about the Fbg (24 h) of the same molecule?
Answer: 210.8 mg/dL

Question: What about the Hb (24 h) of the same molecule?
Answer: 14.5 g/dL

Question: And the Ht (24 h)?
Answer: 41.9%

Question: What about the Lym (24 h) of the same molecule?
Answer: 75.2%

Question: What about the MCH (24 h) of the same molecule?
Answer: 22.2 pg

Question: And the MCHC (24 h)?
Answer: 34.8%

Question: What about the MCV (24 h) of the same molecule?
Answer: 63.7 fL

Question: What about the Mono (24 h) of the same molecule?
Answer: 3.2%

Question: What about the Neu (24 h) of the same molecule?
Answer: 19.8%

Question: And the PT (24 h)?
Answer: 14.4 s

Question: And the Plat (24 h)?
Answer: 131.6 x10_4/uL

Question: And the RBC (24 h)?
Answer: 657.8 x10_4/ul

Question: What about the Ret (24 h) of the same molecule?
Answer: 5.9%

Question: What about the WBC (24 h) of the same molecule?
Answer: 77.9 x10_2/uL

Question: And the KIDNEY_L (24 h)?
Answer: 1 g

Question: What about the KIDNEY_R (24 h) of the same molecule?
Answer: 1 g

Question: And the KIDNEY_TOTAL (24 h)?
Answer: 2 g

Question: What about the LIVER (24 h) of the same molecule?
Answer: 11 g

Question: What about the A/G (24 h) of the same molecule?
Answer: 1.7

Question: And the ALP (24 h)?
Answer: 865 IU/L

Question: What about the ALT (24 h) of the same molecule?
Answer: 35.4 IU/L

Question: What about the AST (24 h) of the same molecule?
Answer: 74 IU/L

Question: What about the BUN (24 h) of the same molecule?
Answer: 15.6 mg/dL

Question: And the CRE (24 h)?
Answer: 0.4 mg/dL

Question: What about the Ca (24 h) of the same molecule?
Answer: 10.6 mg/dL

Question: And the Cl (24 h)?
Answer: 105.2 meq/L

Question: And the DBIL (24 h)?
Answer: 0.098 mg/dL

Question: What about the GLC (24 h) of the same molecule?
Answer: 196.6 mg/dL

Question: And the IP (24 h)?
Answer: 9.1 mg/dL

Question: What about the K (24 h) of the same molecule?
Answer: 4.3 meq/L

Question: And the LDH (24 h)?
Answer: 212.8 IU/L

Question: What about the Na (24 h) of the same molecule?
Answer: 140.6 meq/L

Question: What about the PL (24 h) of the same molecule?
Answer: 117 mg/dL

Question: And the RALB (24 h)?
Answer: 3.3 g/dL

Question: And the TBIL (24 h)?
Answer: 0.2 mg/dL

Question: What about the TC (24 h) of the same molecule?
Answer: 52 mg/dL

Question: What about the TG (24 h) of the same molecule?
Answer: 75.8 mg/dL

Question: What about the TP (24 h) of the same molecule?
Answer: 5.2 g/dL

Question: And the gamma-GTP (24 h)?
Answer: 1.2 IU/L
